Assay results: patent US20060110456A1, “Method for biocidal and/or biostatic treatment and compositions therefor” (NATIONAL UNIVERSITY OF SINGAPORE, priority 2004, published 2006)
Several values for one entry are separate records, joined by “and”; a condition that tells them apart may be missing. Identical values can stand only once. Entries after “also recorded” stand apart in the source; their conditions may differ. Counter-ions that a name gives are not always drawn. Like-named read-outs stand apart in the source and are kept apart here.

Tests used:
[1] = system: marine bacteria (ten strains); experiment: Bio-adhesion assay (crystal violet microplate); type: cell-based, marine bacteria isolated from Singapore fouling communities; settings: for Effect on bacterial adhesion: polystyrene or tissue culture surface as named in the value; for Effect of drugs on adhesion of bacteria: 50 μl of 125 μg ml^−1 drug + 200 μl bacteria, 2 hours
Experimental: The effect of pharmaceuticals on bacterial adhesion was analyzed using a modified microplate method adapted from Shea and Williamson (1990). This method consists of staining the attached bacteria with crystal violet, releasing the stain with sodium desoxycholate, and measuring the resulting absorbance of the crystal violet. The absorbance is proportional to the degree of bacterial adhesion to the surface.
Ten strains of bacteria (strain numbers 1, 4, 9, 14, 18, 20, 27, 28, 29 and 30) were chosen for this study. Flat bottom non-tissue culture treated polystyrene (hydrophobic, Falcon #351172) (referred to as polystyrene) and flat bottom tissue culture treated polystyrene (hydrophilic, Falcon #353072) microplates were used in the analyses. These two types of plates were chosen because they were sterile and offered two different kinds of surfaces to determine the adhesion preferences of the bacteria. Each test was done in duplicate. For the control and blank wells, 50 μl of sterile deionized water were added. For those wells that were to contain drugs, 50 μl of drugs at concentration of 125 μg ml^−1 were added. Then 200 μl of bacteria suspension in sterile seawater, whose absorbance had been adjusted to 0.6 at 600 nm using a spectrophotometer (Beckman), were added. Blanks contained 200 μl of sterile seawater.
The bacteria in suspension were allowed to attach for 2 hours at 28° C. Unattached cells were removed by pipetting out almost all trace of liquid and rinsed three times with 300 μl of sterile seawater each time. The attached cells were stained with 200 μl of crystal violet solution (0.1% w/v) in each well for 5 min. After removing the stain by pipetting, the wells were rinsed twice with 300 μl of sterile deionized water each time. Sodium desoxycholate (200 μl) solution (2% w/v) was then added to each well to extract the crystal violet from the stained cells for 10 min. The absorbance of the extracted solution was read at 590 nm using a microplate reader (Sunrise, Tecan, Switzerland).
The data were analyzed using T-test (Two-sample assuming unequal variances) to determine the significance of the absorbance values of each bacterial strain versus the blanks to determine whether there was adhesion, i.e. increase in absorbance. Each drug effect on adhesion was analyzed by comparing the absorbance of each bacterial strain minus the control blank versus bacteria in presence of drug minus the drug control. When the data is significant, there are bacterial cells attached to the surface in the control but in the presence of drugs, there is no attachment.

[2] = system: marine bacteria (26 strains); experiment: Disk inhibition assay; type: cell-based, marine bacteria isolated from Singapore fouling communities
Experimental: Preparation of Drugs onto Disks for Assay
The non-antibiotic pharmaceuticals of Table 1 were prepared in the following way. A tablet with a known amount of active ingredient (as stated in the product information) was ground in a mortar and pestle and suspended in sterile deionized water to a concentration of 2 mg ml^−1. These samples were sonicated for at least 1 min. […] The two halves of the capsule were separated and the powder released straight into a bottle and suitable amount of water added to make a concentration of 2 mg ml^−1.
As a comparison to the pharmaceuticals, to determine the susceptibility of the bacterial isolates to conventional antibiotics, commercially available antibiotic discs were used. Antibiotic discs (Oxoid® CT series) containing Ampicillin [Amp] (2 and 10 μg), Erythromycin [Ery] (5 and 15 μg), Streptomycin [Str] (10 and 25 μg) and Tetracycline [Tet] (5 and 30 μg) were placed on lawns of the bacterial strains inoculated as described below.
Sterile swabs dipped into the cultures were used to inoculate Marine Agar plates with a bacterial lawn by smearing the culture over the surface. After inoculating the plates, discs with antibiotics, pharmaceuticals or control blanks were placed on each plate. Each concentration of antibiotic or pharmaceutical was tested with three replicates on three separate occasions. After the disks were placed on the agar surface, plates were incubated overnight in the dark at 30° C. After incubation, plates were examined for zones of inhibition or clearing around control and treated disks. The diameter of any zone of clearing or inhibition was measured using Vernier calipers.
The assay was repeated three times with three replicates for each concentration used, each time.

[3] = crude rank, best (1) to worst (8)
[4] = strain 1 (Rhodovulum), hydrophobic surface (untreated polystyrene)
[5] = strain 20, hydrophobic surface (untreated polystyrene)
[6] = strain 4 (Bacillus), hydrophobic surface (untreated polystyrene)
[7] = strain 9 (Bacillus), hydrophobic surface (untreated polystyrene)
[8] = strain 27, hydrophobic surface (untreated polystyrene)
[9] = strain 28, hydrophobic surface (untreated polystyrene)
[10] = strain 30, hydrophilic surface (tissue culture treated polystyrene)
[11] = strain 14 (Vibrio), hydrophobic surface (untreated polystyrene)
[12] = strain 18 (Microbacterium), hydrophobic surface (untreated polystyrene)
[13] = strain 29, hydrophobic surface (untreated polystyrene)

SMILES | Effect on bacterial adhesion ([1]; hydrochloride) | Effect of drugs on adhesion of bacteria ([1]; strain 27, hydrophilic surface (tissue culture treated polystyrene)) | Antibiotic activity against marine bacteria ([2]; 25 or 50 μg per disc, in words) | Antibiotic activity against marine bacteria [2, 3] | Effect on bacterial adhesion [1] | Effect of drugs on adhesion of bacteria [1, 4] | Effect of drugs on adhesion of bacteria [1, 5] | Effect of drugs on adhesion of bacteria ([1]; strain 1 (Rhodovulum), hydrophilic surface (tissue culture treated polystyrene)) | Effect of drugs on adhesion of bacteria ([1]; strain 14 (Vibrio), hydrophilic surface (tissue culture treated polystyrene)) | Effect of drugs on adhesion of bacteria [1, 6] | Effect of drugs on adhesion of bacteria [1, 7] | Effect of drugs on adhesion of bacteria [1, 8] | Effect of drugs on adhesion of bacteria [1, 9] | Effect of drugs on adhesion of bacteria [1, 10] | Effect of drugs on adhesion of bacteria [1, 11] | Effect of drugs on adhesion of bacteria [1, 12] | Effect of drugs on adhesion of bacteria [1, 13] | Antibiotic activity against marine bacteria [2] | Effect of drugs on adhesion of bacteria ([1]; strain 30, hydrophobic surface (untreated polystyrene))
CN1CCN(C(c2ccccc2)c2ccccc2)CC1 [CYZ, Cyclizine hydrochloride] | did not modify bacterial adhesion on polystyrene; also recorded: marginally increased adhesion for strain 27 in the tissue culture surface | *Incr adhesion | did not have any appreciable antibiotic activity against marine bacteria | 8 | – | – | – | – | – | – | – | – | – | – | – | – | – | – | –
CCCCCCCCCC(=O)OC1(c2ccc(Cl)cc2)CCN(CCCC(=O)c2ccc(F)cc2)CC1 [HDL, haloperidol decanoate] | – | – | did not have any appreciable antibiotic activity against marine bacteria | 8 | significant inhibition of adhesion in strain 1 and 20 | *** (*** p < 0.005) | * (Significantly less adhesion observed: * p < 0.05) | – | – | – | – | – | – | – | – | – | – | – | –
CN(C)C(=O)C(CCN1CCC(O)(c2ccc(Cl)cc2)CC1)(c1ccccc1)c1ccccc1 [IMD, Loperamide hydrochloride] | – | – | did not have any appreciable antibiotic activity against marine bacteria | 8 | caused strain 1 to adhere to tissue culture surfaces | * (Significantly less adhesion observed: * p < 0.05) | – | *incr adhesion | * (Significantly less adhesion observed: * p < 0.05) | – | – | – | – | – | – | – | – | – | –
CN[C@H]1CC[C@@H](c2ccc(Cl)c(Cl)c2)c2ccccc21.Cl [ZLT, sertraline hydrochloride] | – | – | – | – | – | *** (*** p < 0.005) | *** (*** p < 0.005) | – | – | *** (*** p < 0.005) | * (Significantly less adhesion observed: * p < 0.05) | *** (*** p < 0.005) | *** (*** p < 0.005) | *** (*** p < 0.005) | – | – | – | – | –
Cc1cc2c(s1)Nc1ccccc1N=C2N1CCN(C)CC1 [ZPX, olanzapine] | – | – | – | – | prevented biofilm formation for almost all strains in the polystyrene surface | *** (*** p < 0.005) | *** (*** p < 0.005) | – | – | * (Significantly less adhesion observed: * p < 0.05) | *** (*** p < 0.005) | *** (*** p < 0.005) | *** (*** p < 0.005) | * (Significantly less adhesion observed: * p < 0.05) | ** (** p < 0.01) | * (Significantly less adhesion observed: * p < 0.05) | * (Significantly less adhesion observed: * p < 0.05) | did not have any appreciable antibiotic activity against marine bacteria and 8 | –
Cc1nccn1CC1CCc2c(c3ccccc3n2C)C1=O (centres unmarked) [ZFN, ondansetron hydrochloride] | prevented biofilm formation for almost all strains in the polystyrene surface; also recorded: increased cell adhesion in the tissue culture surface for strain 30 | – | did not have any appreciable antibiotic activity against marine bacteria | 8 | – | – | ** (** p < 0.01) | – | – | ** (** p < 0.01) | *** (*** p < 0.005) | *** (*** p < 0.005) | *** (*** p < 0.005) | * (Significantly less adhesion observed: * p < 0.05) | * (Significantly less adhesion observed: * p < 0.05) | * (Significantly less adhesion observed: * p < 0.05) | * (Significantly less adhesion observed: * p < 0.05) | – | * (Significantly less adhesion observed: * p < 0.05)
